Laboratory results reported in patent US20140213520A1, “METHODS OF TREATING CARDIOVASCULAR INDICATIONS” (Cardiorentis Ltd., priority 2013, published 2014).

How the values were obtained:
Type in all cases: cell-based
[1] = tested on: Cardiac microvascular endothelial cells (HCMEC); assay: LDH assay: LDH release into culture medium by spectrophotometry; conditions: HCMEC exposed 30 hours to cocktail; treatment at two hours; FIG. 3
Description: (§1) Cardiac microvascular endothelial cells (“HCMEC”) were exposed for 30 hours to a conditioned milieu (“cocktail”) containing a selection of factors (C-reactive protein at 10 μg/ml, TNF-alpha at 10 μg/ml, IL-1β at 10 ng/ml, endothelin-1 at 10 pg/ml and galectin-3 at 20 ng/ml) found in the plasma of ADHF patients. […] The cells from each exposure were harvested at 30 hours for experimental data. Experimental readouts included apoptosis, total protein nitrosylation and lactate dehydrogenase (“LDH”) assay.
FIG. 3 depicts a LDH assay that was performed by measuring LDH release (by spectrophotometry) in the medium where cells were cultured. LDH is a cytoplasmic enzyme released by cells following membrane damage (i.e., cell death).

[2] = tested on: Cardiac microvascular endothelial cells (HCMEC); assay: total protein nitrosylation by western blotting in HCMEC exposed to cocktail; conditions: HCMEC exposed 30 hours to cocktail; treated at 2, 4, 6, 10 or 24 hours; FIG. 2
Description: as §1
The data represented by FIG. 2 is directed to protein nitrosylation which is a postranlational modification caused by peroxynitrite. Peroxynitrite (ONOO^−) results from the scavenging action of superoxide anion (O2^−) on nitric oxide (NO) and results in a decreased bioavailability of the latter. Protein Nitrosylation has several deleterious effects on key vasoactive factors and their function, e.g. prostacyclin synthase is inactivated by nitrosylation.

[3] = tested on: Cardiac microvascular endothelial cells (HCMEC); assay: apoptosis ELISA measuring DNA fragmentation in HCMEC exposed to conditioned milieu (cocktail); conditions: HCMEC exposed 30 hours to cocktail (C-reactive protein, TNF-alpha, IL-1β, endothelin-1, galectin-3); treated at 2, 4, 6, 10 or 24 hours; FIG. 1
Description: as §1
In the data represented by FIG. 1, apoptosis was assessed by performing an ELISA (enzyme-linked immunosorbent assay) measuring DNA fragmentation.

Which “LDH release (cell death)” value [1] does the source give for relaxin here?
The value was “increase in cell death”.

What about the “protein nitrosylation (western blotting)” value [2] of the same substance?
The value was “antioxidant property that decreases over time”.

What about the “cocktail-induced apoptosis (DNA fragmentation ELISA)” value [3] of the same substance?
The value was “decrease cocktail-induced apoptosis”.
